The source of these data is ChEMBL document CHEMBL1127200, “Novel dimeric penicillin derived inhibitors of HIV-1 proteinase: interaction with the catalytic aspartates” (Bioorg Med Chem Lett, 1993).

The term IC50 denotes the midpoint of a concentration-inhibition curve.

This experiment concerns the target Human immunodeficiency virus type 1 protease (Human immunodeficiency virus 1, UniProt Q72874). In words: The compound was tested in vitro for its inhibitory activity against HIV-1 Proteinase activity.
In the case of `CCCNC(=O)[C@@H](NC(=O)Cc1ccccc1)[C@@H]1N[C@@H](C(=O)N(C)CCN(C)C(=O)[C@@H]2N[C@@H]([C@H](NC(=O)Cc3ccccc3)C(=O)NCC)SC2(C)C)C(C)(C)S1`, 11 nM corresponded to half-maximal inhibition (IC50).
Under `CCCNC(=O)[C@@H](NC(=O)Cc1ccccc1)[C@@H]1N[C@@H](C(=O)NCC(CO)NC(=O)[C@@H]2N[C@@H]([C@H](NC(=O)Cc3ccccc3)C(=O)NCC)SC2(C)C)C(C)(C)S1` (stereo partly specified) stands 25 nM; under `CC1(C)S[C@H]([C@H](NC(=O)Cc2ccccc2)C(=O)NCc2ccccc2)N[C@H]1C(=O)NC[C@H](O)[C@@H](O)CNC(=O)[C@@H]1N[C@@H]([C@H](NC(=O)Cc2ccccc2)C(=O)NCc2ccccc2)SC1(C)C`, 36 nM.
Under `CC1(C)S[C@H]([C@H](NC(=O)Cc2ccccc2)C(=O)NCc2ccccc2)N[C@H]1C(=O)NC[C@@H](O)[C@H](O)CNC(=O)[C@@H]1N[C@@H]([C@H](NC(=O)Cc2ccccc2)C(=O)NCc2ccccc2)SC1(C)C` stands 15 nM; under `CC1(C)S[C@H]([C@H](NC(=O)Cc2ccccc2)C(=O)NCc2ccccc2)N[C@H]1C(=O)NCCCCNC(=O)[C@@H]1N[C@@H]([C@H](NC(=O)Cc2ccccc2)C(=O)NCc2ccccc2)SC1(C)C`, 530 nM; under `CC1(C)S[C@H]([C@H](NC(=O)Cc2ccccc2)C(=O)NCc2ccccc2)N[C@H]1C(=O)NC[C@@H](O)[C@@H](O)CNC(=O)[C@@H]1N[C@@H]([C@H](NC(=O)Cc2ccccc2)C(=O)NCc2ccccc2)SC1(C)C`, 14 nM.
